This is an account of results in patent publication US6479480B1, “Phenylindole derivatives as 5-ht2a receptor ligands” (Merck Sharp & Dohme Ltd., priority 1998, dated 2002).

Structures are written as SMILES.

human dopamine D2 receptor, sequence (P14416 whole entry): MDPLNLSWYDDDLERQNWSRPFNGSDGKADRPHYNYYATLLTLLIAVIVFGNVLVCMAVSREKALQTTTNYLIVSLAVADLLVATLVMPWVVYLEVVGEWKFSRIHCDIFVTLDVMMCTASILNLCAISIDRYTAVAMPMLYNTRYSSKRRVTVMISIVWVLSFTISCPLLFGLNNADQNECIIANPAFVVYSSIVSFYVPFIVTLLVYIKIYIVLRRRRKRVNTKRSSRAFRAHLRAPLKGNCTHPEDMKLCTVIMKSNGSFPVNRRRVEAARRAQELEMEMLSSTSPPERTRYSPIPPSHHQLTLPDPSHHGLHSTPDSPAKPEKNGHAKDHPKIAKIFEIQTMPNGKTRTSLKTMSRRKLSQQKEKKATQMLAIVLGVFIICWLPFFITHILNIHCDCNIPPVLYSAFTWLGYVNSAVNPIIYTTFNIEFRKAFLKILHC

Tested on in the first data set: not given
Details: not given
For orientation: melting point means the temperature of the solid-liquid transition. On to `O=C(O)C(=O)O.c1ccc(CCN2CCCC(Cc3c(-c4ccccc4)[nH]c4ccccc34)C2)cc1` (centres unmarked) (hydrate or solvate), for which the melting point was found to be 128 °C. On the same count and under the same terms, with `O=C(O)C(=O)O.c1ccc(CN2CCCC2Cc2c(-c3ccccc3)[nH]c3ccccc23)cc1` (centres unmarked) the figure was 210 °C; with `CN1CCC[C@@H]1Cc1c(-c2ccccc2)[nH]c2ccccc12`, 132 °C; with `COCCN1CCCCC1Cc1c(-c2ccccc2)[nH]c2ccccc12.O=C(O)C(=O)O` (centres unmarked), 185 °C.

For `CN1CCC(Cc2c(-c3ccccc3)[nH]c3ccccc23)C1.O=C(O)C(=O)O` (centres unmarked), the melting point stood at 80 °C. Same read-out and setting: with `O=C(O)C(=O)O.c1ccc(CCN2CCC(Cc3c(-c4ccccc4)[nH]c4ccccc34)C2)cc1` (centres unmarked) the figure was 100 °C; with `O=C(O)C(=O)O.c1ccc(CCN2CCCCC2Cc2c(-c3ccccc3)[nH]c3ccccc23)cc1` (centres unmarked), 232 °C.

The compound `CN1C2CCC(C2)C1Cc1c(-c2ccccc2)[nH]c2ccccc12.Cl` (centres unmarked) yielded a melting point of 176 °C.

The compound `CN1CCNC[C@@H]1Cc1c(-c2cccc(F)c2)[nH]c2cc(F)ccc12.Cl.Cl` showed a melting point of 200 °C. For `CN1CCN(C)[C@@H](Cc2c(-c3ccccc3)[nH]c3c(Cl)cccc23)C1.Cl.Cl`, the melting point stood at 260 °C. On the same count and under the same terms, the figure for `O=C(O)C(=O)O.c1ccc(CCN2CCCC2Cc2c(-c3ccccc3)[nH]c3ccccc23)cc1` (centres unmarked) is 182 °C. On the same count and under the same terms, with `C[C@@H]1CC[C@H](Cc2c(-c3ccccc3)[nH]c3ccccc23)N1C.O=C(O)C(=O)O` (relative stereo) the figure was 183 °C; with `O=C(O)C(=O)O.c1ccc(CN2CCC(Cc3c(-c4ccccc4)[nH]c4ccccc34)C2)cc1` (centres unmarked), 95 °C. The compound `O=C(O)C(=O)O.c1ccc(CN2CCCCC2Cc2c(-c3ccccc3)[nH]c3ccccc23)cc1` (centres unmarked) showed a melting point of 235 °C. In turn, `CN1C2CCC(CC2)C1Cc1c(-c2ccccc2)[nH]c2ccccc12.O=C(O)C(=O)O` (centres unmarked) registered a melting point of 193 °C.

`CCN1CCCCC1Cc1c(-c2ccccc2)[nH]c2ccccc12.O=C(O)C(=O)O` (centres unmarked) returned a melting point of 197 °C. `CN1CCN[C@@H](Cc2c(-c3cccc(F)c3)[nH]c3cc(F)ccc23)C1.Cl.Cl` (hydrate or solvate) had a melting point of 228 °C. In the case of `CN1CCCC[C@H]1Cc1c(-c2ccccc2)[nH]c2ccccc12`, the melting point worked out at 135 °C.

With `CN1CCN(C)[C@@H](Cc2c(-c3ccccc3)[nH]c3ccccc23)C1.Cl.Cl`, the melting point amounted to 253 °C. The same measure, in the same setting: the figure for `CN1CCC[C@H]1Cc1c(-c2ccccc2)[nH]c2ccccc12` is 133 °C; for `CN1CCCC(Cc2c(-c3ccccc3)[nH]c3ccccc23)C1.O=C(O)C(=O)O` (centres unmarked) (hydrate or solvate) it is 234 °C; for `CN1CCCC[C@@H]1Cc1c(-c2ccccc2)[nH]c2ccccc12` (hydrate or solvate) it is 150 °C.

The next data set has as its target human dopamine D2 receptor (Homo sapiens, UniProt P14416). Conditions: cited from earlier work.
On to `COc1cccc(C(O)C2CCN(CCc3ccc(F)cc3)CC2)c1OC` (stereo not drawn) [MDL-100,907, (+)-α-(2,3-dimethoxyphenyl)-1-[2-(4-fluorophenyl)-ethyl]-4-piperidinemethanol], for which the “activity at the human dopamine D2 receptor” value was “essentially devoid of activity”.

For another data set, the system named is schizophrenic patients. The conditions noted are these: multicentre, placebo-controlled study; cited from earlier work.
On to `COc1cccc(C(O)C2CCN(CCc3ccc(F)cc3)CC2)c1OC` (stereo not drawn) [MDL-100,907, (+)-α-(2,3-dimethoxyphenyl)-1-[2-(4-fluorophenyl)-ethyl]-4-piperidinemethanol], for which the “efficacy for antipsychotic potential” value is “demonstrated efficacy” and the neurological adverse effects result was “no neurological adverse effects”.

The next data set concerns animal models. The conditions noted are these: preclinical studies; cited from earlier work.
On to `COc1cccc(C(O)C2CCN(CCc3ccc(F)cc3)CC2)c1OC` (stereo not drawn) [MDL-100,907, (+)-α-(2,3-dimethoxyphenyl)-1-[2-(4-fluorophenyl)-ethyl]-4-piperidinemethanol], for which the “block of apomorphine-induced stereotyped behaviour” value is reported as “failed to block apomorphine-induced stereotyped behaviour”.
